Results on 12 compounds are retold here after ChEMBL document CHEMBL1201862, “PubChem BioAssay data set” (2004).

Among the test systems are EKVX; OVCAR-4; UO-31; SN12C; UACC-62; SF-539; UACC-257; CAKI-1; CCRF-CEM; OVCAR-8; HOP-62; NCI/ADR-RES; DU-145; SW-620; NCI-H226; NCI-H23; SNB-19; MOLT-4; SK-MEL-2; PC-3.
Common to all, as to experiment: inhibition of tumour cell growth, NCI panel, 48 h

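The compound was tested at five concentrations on cells cultured in 96-well plates, with a 48-hour exposure period. At the GI50, growth is halved.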 Calls of active or inactive are those of the source. Cut-off read from the data, not from the text of the source: active = GI50 up to about 1.1 µM and inactive = higher.

For `COc1ccc2c3c1OC1C(OC)(OC)CC4(C=C2)CN(C)CCC314` (configuration not stated), the GI50 in the test with EKVX, in the test on OVCAR-4, with UO-31, with SN12C, in the test with UACC-62 and with SF-539 was > 100 µM (inactive) each time. The GI50 in the test on UACC-257 is > 100 µM (inactive); in the test with CAKI-1, > 100 µM (inactive); with CCRF-CEM, 30.4 µM (inactive); in the test with OVCAR-8, > 100 µM (inactive); in the test on HOP-62, > 100 µM (inactive); in the test on NCI/ADR-RES it was > 100 µM (inactive). Besides, the GI50 in the test with DU-145, in the test on SW-620, in the test on NCI-H226, with NCI-H23, with SNB-19 and with MOLT-4 was > 100 µM (inactive) in each case.
For `COC1=CC2=NCCc3n[nH]c(c32)C1=O`, the GI50 is 16.9 µM (inactive) with EKVX; 24.7 µM (inactive) in the test with UO-31; 13.7 µM (inactive) with SN12C; 14 µM (inactive) in the test with UACC-62; 17.3 µM (inactive) in the test on SF-539; 15.3 µM (inactive) in the test with SK-MEL-2. For the same compound, the GI50 with UACC-257 was 15.6 µM (inactive); in the test with OVCAR-8 it was 15.2 µM (inactive); with HOP-62 it was 31.7 µM (inactive); in the test on NCI/ADR-RES, 29.1 µM (inactive); with PC-3, 19.5 µM (inactive); in the test with SW-620, 13.6 µM (inactive). Further, the GI50 in the test with NCI-H23 was 14.4 µM (inactive); with SNB-19 it was 46 µM (inactive); in the test on MOLT-4, 18.6 µM (inactive).
On to `CC(NC(=O)OC(C)(C)C)C(=O)NC(Cc1ccccc1)C(=O)NCC(=O)Oc1c(Cl)c(Cl)c(Cl)c(Cl)c1Cl` (configuration not stated), for which the GI50 in the test on EKVX was 17.8 µM (inactive); with UO-31, 14.2 µM (inactive); in the test with SN12C it was 14.5 µM (inactive); in the test on UACC-62 it was 22.3 µM (inactive); in the test on SK-MEL-2, 20.7 µM (inactive); in the test with UACC-257, 20 µM (inactive). In addition, the GI50 in the test with OVCAR-8 is 19.6 µM (inactive); in the test on HOP-62, 18.7 µM (inactive); with PC-3, 20.3 µM (inactive); in the test on SW-620, 20.1 µM (inactive); in the test on NCI-H226, 17.7 µM (inactive); with NCI-H23, 18.7 µM (inactive). Also, the GI50 in the test on SNB-19 was 29.3 µM (inactive); with MOLT-4, 23.2 µM (inactive).
In the case of `CCN(CC)CCN1CCN=C2c3cc(OC)ccc3Nc3c([N+](=O)[O-])ccc1c32`, the GI50 was 1.69 µM (inactive) with EKVX; 1.07 µM (active) in the test on OVCAR-4; 0.667 µM (active) with SN12C; 1 µM (active) in the test on UACC-62; 2.59 µM (inactive) in the test with UACC-257; 1.93 µM (inactive) in the test with CAKI-1. Besides, the GI50 in the test on CCRF-CEM is 0.388 µM (active); in the test on OVCAR-8, 0.441 µM (active); with HOP-62 it was 0.56 µM (active); in the test on PC-3, 0.697 µM (active); in the test on DU-145 it was 2.8 µM (inactive); in the test on SW-620, 0.449 µM (active). Moreover, the GI50 in the test on NCI-H23 was 1.1 µM (active); with MOLT-4, 0.288 µM (active).
Consider `CC(=O)c1c(O)ccc2c1c1c(n2C)C(=O)c2ccccc2C1=O`, for which the GI50 in the test on EKVX is 3.24 µM (inactive); in the test on SF-539, 3.08 µM (inactive); with SK-MEL-2 it was > 100 µM (inactive); with UACC-257, > 100 µM (inactive); with CAKI-1, 5.24 µM (inactive); with CCRF-CEM, 3.69 µM (inactive). For the same compound, the GI50 with OVCAR-8 is 5.3 µM (inactive); in the test on HOP-62 it was 6.53 µM (inactive); with DU-145, 3.21 µM (inactive); in the test on SNB-19, 7.28 µM (inactive); in the test on MOLT-4, 4.42 µM (inactive).
As for `O/N=C/c1ccc(O)c(O)c1`, the GI50 with EKVX was 75.7 µM (inactive); in the test on OVCAR-4, 77.3 µM (inactive); in the test on UO-31, 54 µM (inactive); in the test with SN12C it was > 100 µM (inactive); with UACC-62 it was 93.3 µM (inactive); in the test with SF-539, > 100 µM (inactive). The GI50 with SK-MEL-2 is > 100 µM (inactive); in the test with UACC-257 it was > 100 µM (inactive); with CAKI-1 it was 67.8 µM (inactive); with CCRF-CEM it was 7.38 µM (inactive); in the test on OVCAR-8, > 100 µM (inactive); with HOP-62 it was > 100 µM (inactive). The GI50 was 15.4 µM (inactive) in the test on SW-620; > 100 µM (inactive) with NCI-H226; > 100 µM (inactive) with NCI-H23; > 100 µM (inactive) in the test on SNB-19; 20.5 µM (inactive) in the test on MOLT-4.
With `Cc1cc(NS(=O)(=O)c2ccc(NC(=O)c3cccc4c(=O)c5ccccc5[nH]c34)cc2)no1`, the GI50 is 43.6 µM (inactive) in the test with EKVX; 51.6 µM (inactive) with OVCAR-4; 15.7 µM (inactive) with UO-31; 44.1 µM (inactive) in the test on SN12C; 26.1 µM (inactive) in the test on UACC-62; 28.9 µM (inactive) in the test on SF-539. Moreover, the GI50 in the test with SK-MEL-2 is 34.7 µM (inactive); in the test with UACC-257, 87.7 µM (inactive); in the test on CAKI-1, 65.8 µM (inactive); in the test with CCRF-CEM it was 32.6 µM (inactive); in the test with OVCAR-8, 12.5 µM (inactive); with HOP-62 it was 21.6 µM (inactive). Further, the GI50 with SW-620 was 55.6 µM (inactive); in the test with NCI-H226 it was 41.9 µM (inactive); in the test with NCI-H23, 60.7 µM (inactive); with SNB-19, 36.2 µM (inactive); in the test on MOLT-4, 39.4 µM (inactive).
In the case of `O=S(=O)(O)c1cc(/N=N/c2c(O)ccc3ccccc23)c2c(S(=O)(=O)O)cccc2c1`, the GI50 with EKVX, with OVCAR-4, with UO-31, with UACC-62, in the test with SF-539 and in the test on SK-MEL-2 was > 100 µM (inactive) throughout. The GI50 in the test with UACC-257, in the test with CAKI-1, in the test with CCRF-CEM, in the test on OVCAR-8, with HOP-62 and with NCI/ADR-RES was > 100 µM (inactive) in each case. In addition, the GI50 in the test with PC-3, with SW-620, in the test with NCI-H226, in the test with NCI-H23, with SNB-19 and with MOLT-4 was > 100 µM (inactive) each time.
Take `CCOc1ccc(/C=N\N2C(=O)c3ccccc3C2=O)cc1`: the GI50 in the test with EKVX, in the test on OVCAR-4, in the test with UO-31, with SN12C, in the test with UACC-62 and in the test on SF-539 was > 100 µM (inactive) in each case. Besides, the GI50 in the test with SK-MEL-2, in the test on UACC-257, in the test with CAKI-1, in the test with CCRF-CEM, in the test on OVCAR-8 and with HOP-62 was > 100 µM (inactive) in each case. Further, the GI50 with SW-620, in the test on NCI-H226, in the test with NCI-H23, in the test with SNB-19 and in the test on MOLT-4 was > 100 µM (inactive) in each case.
In the case of `Cn1cc2ccccc2c1-c1nc(F)nc(Oc2ccc3c(c2)CC[C@@H]2C3CC[C@@]3(C)C2CC[C@@H]3O)n1` (some centres not stated), the GI50 in the test with EKVX was 15.6 µM (inactive); in the test with OVCAR-4, 7.43 µM (inactive); in the test on UO-31, 24.4 µM (inactive); with SN12C it was 7.87 µM (inactive); in the test on UACC-62, 17.1 µM (inactive); in the test on SF-539 it was 12.8 µM (inactive). Also, the GI50 is 4.2 µM (inactive) in the test with SK-MEL-2; 21.3 µM (inactive) with UACC-257; 11.6 µM (inactive) in the test with CAKI-1; 3.08 µM (inactive) with CCRF-CEM; 7.45 µM (inactive) with OVCAR-8; 9.59 µM (inactive) in the test on HOP-62. Also, the GI50 in the test with SW-620 is 7.35 µM (inactive); with NCI-H226 it was 13.5 µM (inactive); in the test with NCI-H23, 10.3 µM (inactive); in the test with SNB-19, 16.6 µM (inactive); with MOLT-4, 4.07 µM (inactive).
On to `COC(=O)[C@@]12OC[C@]34C([C@@H](O)C1O)[C@@]1(C)CC(=O)C(O)=C(C)C1C[C@H]3OC(=O)[C@H](OC(=O)CC(C)C(F)(F)F)[C@H]42` (some centres not stated), for which the GI50 in the test on EKVX was 0.128 µM (active); in the test with OVCAR-4, 0.0676 µM (active); in the test with UO-31 it was 0.149 µM (active); in the test on SN12C it was 0.145 µM (active); in the test with UACC-62 it was 0.00748 µM (active); with SF-539 it was 0.0105 µM (active). The GI50 in the test with SK-MEL-2 is 0.0771 µM (active); in the test with UACC-257 it was 0.0759 µM (active); in the test on CAKI-1, 0.056 µM (active); with CCRF-CEM, 0.012 µM (active); in the test on OVCAR-8 it was 0.0574 µM (active); with HOP-62, 0.0989 µM (active). Also, the GI50 with SW-620 was 0.022 µM (active); in the test with NCI-H226, 0.0108 µM (active); in the test with NCI-H23, 0.0126 µM (active); with SNB-19 it was 0.00802 µM (active); with MOLT-4, 0.0047 µM (active).
Take `CCOC(=O)C(=O)Nc1nc2c(s1)C(=O)c1ccccc1C2=O`: the GI50 with EKVX is 16.1 µM (inactive); in the test on OVCAR-4 it was 17.1 µM (inactive); with UO-31, 14.8 µM (inactive); in the test on SN12C, 16.5 µM (inactive); in the test with UACC-62, 17.5 µM (inactive); with SF-539, 17.7 µM (inactive). The GI50 in the test on SK-MEL-2 was 17.2 µM (inactive); in the test with UACC-257, 16.1 µM (inactive); in the test with CAKI-1, 18.5 µM (inactive); in the test on CCRF-CEM, 5.05 µM (inactive); in the test with OVCAR-8, 10.6 µM (inactive); in the test on HOP-62, 18.9 µM (inactive). Besides, the GI50 with SW-620 was 13.4 µM (inactive); in the test with NCI-H226, 18.2 µM (inactive); with NCI-H23, 13.5 µM (inactive); with SNB-19, 17.9 µM (inactive); in the test on MOLT-4 it was 2.32 µM (inactive).
